According to US20080221195A1, “1,2-DIARYLACETYLENE DERIVATIVES OF ACYLTRYPTOPHANOLS” (priority 2006, published 2008):

molecular target: T1, human FSH receptor (Homo sapiens, UniProt P23945); experiment: HTRF assay for measuring cAMP in cells (FSH-antagonistic effect); type: cell-based; settings: hFSHR clone 16 cells (CHO cells stably transfected with the human FSH receptor), in the presence of 1e-9 mol/l hFSH, 37° C. for 2 h
T1 construct: expressed in transfected cells; host or cells: CHO cells (hFSHR clone 16)
T1 sequence (P23945 18-695): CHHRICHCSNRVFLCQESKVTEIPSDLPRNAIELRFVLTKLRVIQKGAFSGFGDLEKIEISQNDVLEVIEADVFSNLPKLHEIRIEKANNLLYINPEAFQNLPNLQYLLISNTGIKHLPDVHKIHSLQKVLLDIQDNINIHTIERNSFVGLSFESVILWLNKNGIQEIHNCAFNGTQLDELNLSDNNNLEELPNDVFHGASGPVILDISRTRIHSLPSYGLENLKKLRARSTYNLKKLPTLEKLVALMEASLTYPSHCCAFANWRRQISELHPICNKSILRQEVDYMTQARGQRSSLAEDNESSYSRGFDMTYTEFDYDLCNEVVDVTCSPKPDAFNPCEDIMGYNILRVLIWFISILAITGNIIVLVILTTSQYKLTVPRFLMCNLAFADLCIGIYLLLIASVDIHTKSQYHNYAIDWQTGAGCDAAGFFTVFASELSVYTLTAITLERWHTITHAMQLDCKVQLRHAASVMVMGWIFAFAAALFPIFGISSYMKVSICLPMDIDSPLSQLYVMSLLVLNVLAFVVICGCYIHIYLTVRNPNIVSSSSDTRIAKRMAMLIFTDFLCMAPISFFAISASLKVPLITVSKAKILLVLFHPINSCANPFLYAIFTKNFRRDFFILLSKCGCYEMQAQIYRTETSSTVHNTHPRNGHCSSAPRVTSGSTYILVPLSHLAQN
Procedure: HTRF Assay for Measuring cAMP in Cells
The method is based on a competitive immunoassay between native cAMP, which has been produced by the cells, and cAMP which is labelled with cAMPD2 conjugate. The tracer binding was visualized by a monoclonal antibody, anti-cAMP labelled with cryptate [HTRF=homogeneous time-resolved fluorescence].
The specific signal is inversely proportional to the cAMP concentration of the samples employed.
The 665 nm/620 nm fluorescence ratio was evaluated.
Materials used: 96-well plates for the tissue culture, 96-well plates with black edge and black base (e.g. Fluotrac 600 from Greiner), 96-well plates for the substance dilutions of polypropylene and cAMP Femtomolar (4000 wells Kit, CIS Bio International # 62AM5PEJ).
Reagent used: BSA (bovine serum albumin) Fraction V protease-free, IBMX (3-isobutyl-1-methylxanthine), hFSH (human follicle stimulating hormone), Triton X-100 analytical grade, potassium fluoride analytical grade, G 418 (Geneticin) and Accutase.
Buffer 1 (washing and testing buffer) contained PBS, 1 mM CaCl2, 1 mM MgCl2, 0.2% glucose; 0.1% BSA, 1 mM IBMX.
Buffer 2 (2× lysis buffer) contained 1% Triton X-100 in PBS (without CaCl2 and MgCl2).
Buffer 3 (assay buffer) contained 50 mM potassium phosphate buffer (pH 7.0); 800 mM potassium fluoride; 0.2% BSA (always added fresh).
On day 1, the cells were seeded in 96-well plates (3×10^4 cells per well hFSHR clone 16 cells (CHO cells stably transfected with the human FSH receptor in 150 μl of medium). The next day, test substance dilutions were made up. For this purpose, all the substances were diluted in ice-cold buffer 1 (with or without hFSH), and the substance dilutions were placed on ice until applied to the cells. The cell supernatant was then aspirated off, and the cells were washed 2× with 200 μl of buffer 1. The cells were treated with 60 μl of the appropriate substance concentrations at 37° C. for 2 h. The cells were then lysed with 60 μl of buffer 2 (put onto the supernatant) (on a plate shaker at RT for 30 min). The test conjugates (cAMP-D2 and anti-cAMP cryptate, CIS Bio) were diluted in buffer 3 in accordance with the manufacturers' information. The actual mixture for measurement was pipetted into a black 96-well plate (in each case 15 μl of the cell lysate diluted with 35 μl of buffer 1; firstly 25 μl of cAMP-D2 conjugate were pipetted and, after 10 min, 25 μl of the anti-cAMP cryptate were added). This is followed by incubation at RT for 90 minutes. The measurement was carried out in a PheraStar (BMG).
Dose-effect curve (hFSH) for the human receptor: 1e-8, 3e-9, 1e-9, 3e-10, 1e-10, 3e-11, 1e-11, 3e-12 mol/l.
The test substances were employed in suitable dilutions in the absence (test for agonism) and in the presence of 1e-9 mol/l hFSH.
The values of the well ratio were averaged and then entered directly in SigmaPlot versus the concentrations. The maximum and minimum values were determined for each plate, and half the difference is to be regarded as IC50.

| SMILES | IC50 [nM] |
| --- | --- |
| CC(C)Oc1ccc(C#Cc2ccc(-c3cc[nH]n3)cc2)cc1C(=O)N[C@@H](CO)Cc1c[nH]c2ccccc12 [Example 142, N-[(R)-2-Hydroxy-1-(1H-indol-3-ylmethyl)-ethyl]-2-isopropoxy-5-[4-(1H-pyrazol-3-yl)-phenylethynyl]-benzamide] | 10 |
| COC(=O)CCCCCNC(=O)c1ccc(C#Cc2ccc(OC(C)C)c(C(=O)N[C@@H](CO)Cc3c[nH]c4ccccc34)c2)cc1 [Example 171, 6-(4-{3-[(R)-1-Hydroxymethyl-2-(1H-indol-3-yl)-ethylcarbamoyl]-4-isopropoxy-phenylethynyl}-benzoylamino)-hexanoic acid methyl ester] | 25 |
| CC(C)Oc1ccc(C#Cc2cncc(C(N)=O)c2)cc1C(=O)N[C@@H](CO)Cc1c[nH]c2ccccc12 [Example 97, 5-{3-[(R)-1-Hydroxymethyl-2-(1H-indol-3-yl)-ethylcarbamoyl]-4-isopropoxy-phenylethynyl}-nicotinamide] | 15 |
| CC(C)Oc1ccc(C#Cc2ccc(C#N)cc2)cc1C(=O)N[C@@H](CO)Cc1c[nH]c2ccccc12 [Example 110, 5-(4-Cyano-phenylethynyl)-N-[(R)-1-hydroxymethyl-2-(1H-indol-3-yl)-ethyl]-2-isopropoxy-benzamide] | 350 |
| CC(C)Oc1ccc(C#Cc2ccc(N3CCCC3=O)cc2)cc1C(=O)N[C@@H](CO)Cc1c[nH]c2ccccc12 [Example 124, N-[(R)-1-Hydroxymethyl-2-(1H-indol-3-yl)-ethyl]-2-isopropoxy-5-[4-(2-oxo-pyrrolidin-1-yl)-phenylethynyl]-benzamide] | 80 |
| CC(C)Oc1ccc(C#Cc2ccccc2)cc1C(=O)NC(CO)Cc1c[nH]c2cc(F)ccc12 (stereo not shown) [Example 75, N-[2-(6-Fluoro-1H-indol-3-yl)-1-hydroxymethyl-ethyl]-2-isopropoxy-5-phenylethynyl-benzamide] | 100 |
| CC(C)Oc1ccc(C#Cc2ccccc2CC(=O)O)cc1C(=O)N[C@@H](CO)Cc1c[nH]c2ccccc12 [Example 58, (2-{3-[(R)-1-Hydroxymethyl-2-(1H-indol-3-yl)-ethylcarbamoyl]-4-isopropoxy-phenylethynyl}-phenyl)-acetic acid] | 2500 |
